According to US8685924B2, “Preventives/remedies for stress urinary incontinence and method of screening the same” (Takeda Pharmaceutical Company Limited, priority 2004, dated 2014):

Experiments:
[1] = test system: urethane-anesthetized female rats; experiment: Antagonism of the leak point pressure increase by WAY-161503 / WAY-163909, abdominal wall-electrically stimulating method (Example 3); assay type: in vivo, rat; conditions: for leak point pressure after drug administration / leak point pressure increase / leak point pressure before drug administration: i.v., mean ± SEM; for leak point pressure before drug administration: baseline
Method: SD female rats (body weight 180-350 g) were anesthetized with urethane (Wako Pure Chemical Industries, Ltd.), and the spinal cord was transected at T8-9 level to eliminate the reflex voiding. In addition, the nerve to the iliococcygeus muscle/pubococcygeus muscle on the one side was transected. During operation, halothane (Takeda Pharmaceutical Company Limited) anesthesia was added when necessary. A catheter (PE-90, Clay Adams) was inserted into the bladder and secured with a ligature, and the incised part of each of the abdominal muscle and skin was closed with sutures. The abdominal skin near the diaphragm was incised at two left and right positions to newly expose the abdominal muscle. An Evans Blue dye (Merck) solution was injected into the bladder, and the bladder volume was adjusted to 0.2-0.3 ml. The bladder catheter was connected to a pressure transducer, and the signals of the transducer were sent to a computer via an amplifier (blood pressure amplification unit AP-641G; NIHON KOHDEN) and an analog-to-digital converter (BIOPAC; MP100), and recorded on a hard disc. The data were analyzed on a computer using software (BIOPAC; AcqKnowledge). The exposed abdominal muscle was electrostimulated using an electrostimulator (SEN-3301; NIHON KODEN) and an isolator (SS-202J; NIHON KODEN), and the presence or absence of incontinence from the meatus urethra was observed. The electrostimulation was applied at a voltage of 2.5-50 V, duration of 0.5 milisec, and frequency 50 Hz for 1 sec, thereby gradually increasing the intravesical pressure. The peak intravesical pressure during stimulation of the abdominal wall was measured and, of the trials with observed incontinence, the lowest peak intravesical pressure was defined as the leak point pressure. Serotonin 5-HT receptor agonist, WAY-161503 (5-HT2C receptor agonist), WAY-163909 (5-HT2C receptor agonist), DOI (5-HT2A/2B/2C receptor agonist), mCPP (5-HT2B/2C receptor partial agonist), eltoprazine (5-HT1A/1B/2C receptor partial agonist), 8-OH-DPAT (5-HT1A receptor agonist), sumatryptan (5-HT1B/1D receptor agonist) and BW723C86 (5-HT2B receptor agonist) were intravenously administered, and the leak point pressure was compared before and after the administration. DOI, mCPP and eltoprazine were dissolved in saline, and other drugs were dissolved in DMA/PEG400 (1:1), and they were intravenously administered at 1 ml/kg and 0.5 mg/kg, respectively. Depending on the experiment, RS-102221 (serotonin 5-HT2C receptor antagonist) or SB221284 (serotonin 5-HT2B/2C receptor antagonist) was intravenously administered 5 min before WAY-161503 or WAY-163909 administration, and an antagonistic effect against the WAY-161503 or WAY-163909-induced increment of the leak point pressure was examined. RS-102221 and SB221284 were both dissolved in DMA/PEG400 (1:1) and intravenously administered at 0.5 ml/kg.

[2] = test system: urethane-anesthetized female rats; experiment: Antagonism of the leak point pressure increase by WAY-161503 / WAY-163909, direct bladder compression method (Example 4); assay type: in vivo, rat; conditions: for leak point pressure after drug administration / leak point pressure increase / leak point pressure before drug administration: i.v., mean ± SEM; for leak point pressure before drug administration: baseline
Method: SD female rats (body weight 180-350 g) were anesthetized with urethane (Wako Pure Chemical Industries, Ltd.), and halothane (Takeda Pharmaceutical Company Limited) anesthesia was added when necessary during operation.
The spinal cord was transected at T8-9 level to eliminate the reflex voiding. The lower abdomen was incised in the median line, a catheter for intravesical pressure measurement (PE-90, Clay Adams) was inserted into the bladder and secured with a ligature, and the intravesical pressure was measured via a pressure transducer. Urine was emptized in advance by bilaterally pressing the bladder with two swabs, and a 0.1% Evans blue (Merck) solution (0.4 mL) was injected into the bladder. The bladder was gradually compressed bilaterally with two swabs, and the intravesical pressure upon saline leakage from the urethral orifice was measured and defined as a leak point pressure. The measurement of the leak point pressure was repeated, and the average value of the final five stable measures was taken as the value before drug administration. Thereafter, the drug was intravenously administered, the leak point pressure was measured again 20 min later, and the value after the drug administration was determined. DOI, mCPP and eltoprazine were dissolved in saline, and other drugs were dissolved in DMA/PEG400 (1:1), and intravenously administered at 1 ml/kg and 0.5 mg/kg, respectively. Depending on the experiment, RS-102221 or SB221284 (showing serotonin 5-HT2C receptor antagonist activity) was administered, 5 min later, WAY-161503 or WAY-163909 was administered, leak point pressure was measured 10 min later, and a competitive assay with the action of WAY-161503 or WAY-163909 was performed. RS-102221 and SB221284 were both dissolved in DMA/PEG400 (1:1), and intravenously administered at 0.5 ml/kg.

[3] = antagonist 0.1 mg/kg, i.v. 5 min before WAY-161503 0.3 mg/kg
[4] = antagonist 0.3 mg/kg, i.v. 5 min before WAY-161503 0.3 mg/kg
[5] = antagonist 0.1 mg/kg, i.v. 5 min before WAY-163909 0.3 mg/kg
[6] = antagonist 0.3 mg/kg, i.v. 5 min before WAY-163909 0.3 mg/kg
[7] = antagonist alone 0.3 mg/kg, agonist: solvent, WAY-163909 series
[8] = intravenous, against WAY-163909
[9] = antagonist 1 mg/kg, i.v. 5 min before WAY-161503 0.3 mg/kg
[10] = antagonist 3 mg/kg, i.v. 5 min before WAY-161503 0.3 mg/kg
[11] = antagonist 3 mg/kg, i.v. 5 min before WAY-163909 0.3 mg/kg
[12] = antagonist 1 mg/kg, i.v. + WAY-161503 0.3 mg/kg
[13] = antagonist 3 mg/kg, i.v. + WAY-161503 0.3 mg/kg
[14] = antagonist 3 mg/kg, i.v. + WAY-163909 0.3 mg/kg
[15] = antagonist 1 mg/kg, i.v. 5 min before WAY-163909 0.3 mg/kg
[16] = antagonist alone 3 mg/kg, agonist: solvent, WAY-161503 series
[17] = antagonist alone 3 mg/kg, agonist: solvent, WAY-163909 series

## CSc1cc2c(cc1C(F)(F)F)N(C(=O)Nc1cccnc1)CC2 [SB221284]
[1]; against WAY-161503
  suppression of the leak point pressure increasing action: suppressed the leak point pressure increasing action by WAY-161503 significantly
[1]; [3]
  leak point pressure after drug administration: 66.9 ± 9.8 cmH2O
  leak point pressure increase: 13.6 ± 3.8 cmH2O
[1]; [4]
  leak point pressure after drug administration: 46.8 ± 6.2 cmH2O
  leak point pressure increase: −3.6 ± 1.4 cmH2O
[1]; antagonist 0.1 mg/kg, i.v. + WAY-161503 0.3 mg/kg
  leak point pressure before drug administration: 53.3 ± 7.0 cmH2O
[1]; antagonist 0.3 mg/kg, i.v. + WAY-161503 0.3 mg/kg
  leak point pressure before drug administration: 50.4 ± 6.3 cmH2O
[2]; [5]
  leak point pressure after drug administration: 59.4 ± 3.9 cmH2O
  leak point pressure increase: 6.2 ± 3.1 cmH2O
[2]; [6]
  leak point pressure after drug administration: 60.7 ± 3.9 cmH2O
  leak point pressure increase: 0.4 ± 1.7 cmH2O
[2]; [7]
  leak point pressure after drug administration: 63.0 ± 2.0 cmH2O
  leak point pressure increase: −1.2 ± 2.2 cmH2O
  leak point pressure before drug administration: 64.2 ± 1.2 cmH2O
[2]; antagonist 0.1 mg/kg, i.v. + WAY-163909 0.3 mg/kg
  leak point pressure before drug administration: 53.2 ± 3.4 cmH2O
[2]; antagonist 0.3 mg/kg, i.v. + WAY-163909 0.3 mg/kg
  leak point pressure before drug administration: 60.3 ± 4.0 cmH2O
[2]; [8]
  suppression of the leak point pressure increase: significantly suppressed an increase in the leak point pressure by WAY-163909

## COc1cc(OC)c(C(=O)CCCCN2CCC3(CC2)NC(=O)NC3=O)cc1NS(=O)(=O)c1ccc(C(F)(F)F)cc1 [RS102221]
[1]; [9]
  leak point pressure after drug administration: 68.5 ± 6.1 cmH2O
  leak point pressure increase: 20.2 ± 4.1 cmH2O
[1]; [10]
  leak point pressure after drug administration: 50.0 ± 6.3 cmH2O
  leak point pressure increase: 9.7 ± 2.1 cmH2O
[1]; [11]
  leak point pressure after drug administration: 53.0 ± 7.0 cmH2O
  leak point pressure increase: 6.5 ± 2.4 cmH2O
[1]; [12]
  leak point pressure before drug administration: 48.3 ± 7.5 cmH2O
[1]; [13]
  leak point pressure before drug administration: 40.3 ± 5.5 cmH2O
[1]; [14]
  leak point pressure before drug administration: 46.5 ± 5.9 cmH2O
[1]; intravenous, against WAY-161503 (0.3 mg/kg, i.v.) or WAY-163909 (0.3 mg/kg, i.v.)
  dose at which suppression of the leak point pressure increase was significant: 3 mg/kg
[2]; [9]
  leak point pressure after drug administration: 67.5 ± 5.4 cmH2O
  leak point pressure increase: 12.8 ± 1.9 cmH2O
[2]; [15]
  leak point pressure after drug administration: 74.1 ± 3.4 cmH2O
  leak point pressure increase: 11.6 ± 2.4 cmH2O
[2]; [10]
  leak point pressure after drug administration: 70.5 ± 1.8 cmH2O
  leak point pressure increase: 9.8 ± 2.7 cmH2O
[2]; [11]
  leak point pressure after drug administration: 70.9 ± 3.0 cmH2O
  leak point pressure increase: 7.4 ± 1.4 cmH2O
[2]; [16]
  leak point pressure after drug administration: 60.7 ± 6.2 cmH2O
  leak point pressure increase: 3.8 ± 1.9 cmH2O
  leak point pressure before drug administration: 56.8 ± 5.5 cmH2O
[2]; [17]
  leak point pressure after drug administration: 59.2 ± 6.6 cmH2O
  leak point pressure increase: −0.2 ± 2.1 cmH2O
  leak point pressure before drug administration: 59.4 ± 7.0 cmH2O
[2]; [12]
  leak point pressure before drug administration: 54.7 ± 6.1 cmH2O
[2]; antagonist 1 mg/kg, i.v. + WAY-163909 0.3 mg/kg
  leak point pressure before drug administration: 62.5 ± 3.1 cmH2O
[2]; [13]
  leak point pressure before drug administration: 60.7 ± 3.3 cmH2O
[2]; [14]
  leak point pressure before drug administration: 63.6 ± 3.3 cmH2O
[2]; intravenous, against WAY-161503 (0.3 mg/kg, i.v.)
  dose at which suppression of the leak point pressure increase was significant: 3 mg/kg
[2]; [8]
  dose at which suppression of the leak point pressure increase was significant: 3 mg/kg
